# Data from patent publication US10717742B2, “Spiro[3H-indole-3,2′-pyrrolidin]-2(1H)-one compounds and derivatives as MDM2-P53 inhibitors” (Boehringer Ingelheim International GmbH, priority 2015, dated 2020).
# Biological target: p53-MDM2 interaction (GST-MDM2 protein aa 23-117 / biotinylated p53 wt peptide) (Homo sapiens (Human), UniProt Q00987)
# Test: Mdm2-p53 Inhibition AlphaScreen
# Format: binding
# Settings: GST-MDM2 (aa 23-117) / biotinylated p53 wt peptide
# Description: Mdm2-p53 Inhibition AlphaScreen
# 15 μL of compound in 20% DMSO (serial pre-dilutions of compound are done in 100% DMSO) is pipetted to the wells of a white OptiPlate-96 (Perkin Elmer). A mix consisting of 20 nM GST-MDM2 protein (aa 23-117) and 20 nM biotinylated p53 wt peptide (encompassing aa 16-27 of wt human p53, amino acid sequence […]-Ttds-Lys-Biotin, molecular weight 2132.56 g/mol) is prepared in assay buffer (50 mM Tris/HCl pH 7.2; 120 mM NaCl; 0.1% bovine serum albumin (BSA); 5 mM dithiothreitol (DTT); 1 mM ethylenediaminetetraacetic acid (EDTA); 0.01% Tween 20). 30 μL of the mix is added to the compound dilutions and incubated for 15 min at rt while gently shaking the plate at 300 rounds per minute (rpm). Subsequently, 15 μL of premixed AlphaLISA Glutathione Acceptor Beads and AlphaScreen Streptavidin Donor Beads from PerkinElmer (in assay buffer at a concentration of 10 μg/mL each) are added and the samples are incubated for 30 min at rt in the dark (shaking 300 rpm). Afterwards, the signal is measured in a PerkinElmer Envision HIS Multilabel Reader using the AlphaScreen protocol from Perkin Elmer.
# Each plate contains negative controls where biotinylated p53-peptide and GST-MDM2 are left out and replaced by assay buffer. Negative control values are entered as low basis value when using the software GraphPad Prism for calculations. Furthermore, a positive control (5% DMSO instead of test compound; with protein/peptide mix) is pipetted. Determination of IC50 values are carried out using GraphPad Prism 3.03 software (or updates thereof).
# Chain of p53-MDM2 interaction (GST-MDM2 protein aa 23-117 / biotinylated p53 wt peptide) (Q00987 23-117): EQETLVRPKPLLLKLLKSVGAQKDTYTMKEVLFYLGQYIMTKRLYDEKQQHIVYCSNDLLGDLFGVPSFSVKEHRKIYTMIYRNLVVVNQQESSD
row,IC50 [nM],Compound
1,23,COC(=O)c1ccc2c3n(nc2c1C)[C@@H]1[C@H](C3)N(CC2CC2)[C@@]2(C(=O)Nc3cc(Cl)ccc32)[C@H]1c1cccc(Cl)c1F [Ia-20]
2,2,O=C(O)c1ccc2c3n(nc2c1)[C@@H]1[C@H](C3)N(CC2CC2)[C@@]2(C(=O)Nc3cc(Cl)ccc32)[C@H]1c1cccc(Cl)c1F [Ia-25]
3,4,O=C(O)c1ccc2c3n(nc2c1)[C@@H]1[C@H](C3)N(CC2CCC2)[C@@]2(C(=O)Nc3cc(Cl)ccc32)[C@H]1c1cccc(Cl)c1F [Ia-26]
4,2,CC(C)CN1[C@H]2Cc3c4ccc(C(=O)O)cc4nn3[C@H]2[C@H](c2cccc(Cl)c2F)[C@]12C(=O)Nc1cc(Cl)ccc12 [Ia-27]
5,2,CCCN1[C@H]2Cc3c4ccc(C(=O)O)cc4nn3[C@H]2[C@H](c2cccc(Cl)c2F)[C@]12C(=O)Nc1cc(Cl)ccc12 [Ia-29]
6,2,CCN1[C@H]2Cc3c4ccc(C(=O)O)cc4nn3[C@H]2[C@H](c2cccc(Cl)c2F)[C@]12C(=O)Nc1cc(Cl)ccc12 [Ia-30]
7,3,COCCN1[C@H]2Cc3c4ccc(C(=O)O)cc4nn3[C@H]2[C@H](c2cccc(Cl)c2F)[C@]12C(=O)Nc1cc(Cl)ccc12 [Ia-31]
8,2,CCOc1cccc(CN2[C@H]3Cc4c5ccc(C(=O)O)cc5nn4[C@H]3[C@H](c3cccc(Cl)c3F)[C@]23C(=O)Nc2cc(Cl)ccc23)c1 [Ia-32]
9,3,Cc1cc2c3n(nc2cc1C(=O)O)[C@@H]1[C@H](C3)N(CC2CC2)[C@@]2(C(=O)Nc3cc(Cl)ccc32)[C@H]1c1cccc(Cl)c1F [Ia-33]
10,2,Cc1c(C(=O)O)ccc2c3n(nc12)[C@@H]1[C@H](C3)N(CC2CC2)[C@@]2(C(=O)Nc3cc(Cl)ccc32)[C@H]1c1cccc(Cl)c1F [Ia-34]
11,2,COc1cc2c3n(nc2cc1C(=O)O)[C@@H]1[C@H](C3)N(CC2CC2)[C@@]2(C(=O)Nc3cc(Cl)ccc32)[C@H]1c1cccc(Cl)c1F [Ia-35]
12,5,COc1c(C(=O)O)ccc2c3n(nc12)[C@@H]1[C@H](C3)N(CC2CC2)[C@@]2(C(=O)Nc3cc(Cl)ccc32)[C@H]1c1cccc(Cl)c1F [Ia-36]
13,2,O=C(O)c1ccc2nn3c(c2c1)C[C@H]1[C@@H]3[C@H](c2cccc(Cl)c2F)[C@]2(C(=O)Nc3cc(Cl)ccc32)N1CC1CC1 [Ia-38]
14,4,Cc1cc2c3n(nc2cc1C(=O)O)[C@@H]1[C@H](C3)N(CC(C)C)[C@@]2(C(=O)Nc3cc(Cl)ccc32)[C@H]1c1cccc(Cl)c1F [Ia-39]
15,2,CCOc1cccc(CN2[C@H]3Cc4c5cc(C)c(C(=O)O)cc5nn4[C@H]3[C@H](c3cccc(Cl)c3F)[C@]23C(=O)Nc2cc(Cl)ccc23)c1 [Ia-40]
16,3,O=C(O)c1ccc2c3n(nc2c1)[C@@H]1[C@H](C3)N(CC2CC2)[C@@]2(C(=O)Nc3cc(Cl)ccc32)[C@H]1c1ccnc(Cl)c1F [Ia-41]
17,2,O=C(O)c1ccc2c3n(nc2c1)[C@@H]1[C@H](C3)N(CC2CC2)[C@@]2(C(=O)Nc3nc(Cl)ccc32)[C@H]1c1cccc(Cl)c1F [Ia-43]
18,8,CC(C)(O)CNC(=O)c1ccc2c3n(nc2c1)[C@@H]1[C@H](C3)N(CC2CCC2)[C@@]2(C(=O)Nc3cc(Cl)ccc32)[C@H]1c1cccc(Cl)c1F [Ia-46]
19,9,O=C(NC1CC1)c1ccc2c3n(nc2c1)[C@@H]1[C@H](C3)N(CC2CCC2)[C@@]2(C(=O)Nc3cc(Cl)ccc32)[C@H]1c1cccc(Cl)c1F [Ia-47]
20,10,COCC(COC)NC(=O)c1ccc2c3n(nc2c1)[C@@H]1[C@H](C3)N(CC2CCC2)[C@@]2(C(=O)Nc3cc(Cl)ccc32)[C@H]1c1cccc(Cl)c1F [Ia-48]
21,6,COCCOCCNC(=O)c1ccc2c3n(nc2c1)[C@@H]1[C@H](C3)N(CC2CCC2)[C@@]2(C(=O)Nc3cc(Cl)ccc32)[C@H]1c1cccc(Cl)c1F [Ia-49]
22,4,CCN1[C@H]2Cc3c4ccc(C(=O)NCCO)cc4nn3[C@H]2[C@H](c2cccc(Cl)c2F)[C@]12C(=O)Nc1cc(Cl)ccc12 [Ia-50]
23,7,CCN1[C@H]2Cc3c4ccc(C(=O)NCCN(C)C)cc4nn3[C@H]2[C@H](c2cccc(Cl)c2F)[C@]12C(=O)Nc1cc(Cl)ccc12 [Ia-51]
24,69,CCN1[C@H]2Cc3c4ccc(C(=O)N5CCCCC5)cc4nn3[C@H]2[C@H](c2cccc(Cl)c2F)[C@]12C(=O)Nc1cc(Cl)ccc12 [Ia-52]
25,7,CCN1[C@H]2Cc3c4ccc(C(=O)NC5(C)COC5)cc4nn3[C@H]2[C@H](c2cccc(Cl)c2F)[C@]12C(=O)Nc1cc(Cl)ccc12 [Ia-53]

row,IC50 [nM],Compound
1,13,CCOc1cccc(CN2[C@H]3Cc4c5cc(C)c(C(=O)N6CCOCC6)cc5nn4[C@H]3[C@H](c3cccc(Cl)c3F)[C@]23C(=O)Nc2cc(Cl)ccc23)c1 [Ia-54]
2,6,CCOc1cccc(CN2[C@H]3Cc4c5cc(C)c(C(=O)NCCOC)cc5nn4[C@H]3[C@H](c3cccc(Cl)c3F)[C@]23C(=O)Nc2cc(Cl)ccc23)c1 [Ia-55]
3,5,CCOc1cccc(CN2[C@H]3Cc4c5cc(C)c(C(=O)NC)cc5nn4[C@H]3[C@H](c3cccc(Cl)c3F)[C@]23C(=O)Nc2cc(Cl)ccc23)c1 [Ia-56]
4,13,CCOc1cccc(CN2[C@H]3Cc4c5cc(C)c(C(=O)N(C)C)cc5nn4[C@H]3[C@H](c3cccc(Cl)c3F)[C@]23C(=O)Nc2cc(Cl)ccc23)c1 [Ia-57]
5,5,CCOc1cccc(CN2[C@H]3Cn4c(nc5cc(C(=O)OC)ccc54)[C@H]3[C@H](c3cccc(Cl)c3F)[C@]23C(=O)Nc2cc(Cl)ccc23)c1 [Ib-49]
6,15,CC(=O)Nc1ccc2c(c1)nc1n2CC[C@H]2[C@@H]1[C@H](c1cccc(Cl)c1F)[C@]1(C(=O)Nc3cc(Cl)ccc31)N2CC1CC1 [Ib-59]
7,166,COC(=O)c1ccc2c(c1)nc1n2CC[C@H]2[C@@H]1[C@H](c1cccc(Cl)c1F)[C@]1(C(=O)Nc3cc(Cl)ccc31)N2CC=C(C)C [Ib-66]
8,3,O=C(O)c1ccc2c(c1)nc1n2CC[C@H]2[C@@H]1[C@H](c1cccc(Cl)c1F)[C@]1(C(=O)Nc3cc(Cl)ccc31)N2CC1CC1 [Ib-106]
9,2,O=C(O)c1ccc2c(c1)nc1n2CC[C@H]2[C@@H]1[C@H](c1cccc(Cl)c1F)[C@]1(C(=O)Nc3cc(Cl)ccc31)N2CC1CC1 [Ib-107]
10,79,O=C(O)c1ccc2c(c1)nc1n2CC[C@@H]2[C@H]1[C@@H](c1cccc(Cl)c1F)[C@@]1(C(=O)Nc3cc(Cl)ccc31)N2CC1CC1 [Ib-108]
11,8,CC(C)CN1[C@H]2CCn3c(nc4cc(C(=O)O)ccc43)[C@H]2[C@H](c2cccc(Cl)c2F)[C@]12C(=O)Nc1cc(Cl)ccc12 [Ib-109]
12,3,CC(C)CN1[C@H]2CCn3c(nc4cc(C(=O)O)ccc43)[C@H]2[C@H](c2cccc(Cl)c2F)[C@]12C(=O)Nc1cc(Cl)ccc12 [Ib-110]
13,7,CCN1[C@H]2CCn3c(nc4cc(C(=O)O)ccc43)[C@H]2[C@H](c2cccc(Cl)c2F)[C@]12C(=O)Nc1cc(Cl)ccc12 [Ib-111]
14,4,CCCN1[C@H]2CCn3c(nc4cc(C(=O)O)ccc43)[C@H]2[C@H](c2cccc(Cl)c2F)[C@]12C(=O)Nc1cc(Cl)ccc12 [Ib-113]
15,7,CCCCN1[C@H]2CCn3c(nc4cc(C(=O)O)ccc43)[C@H]2[C@H](c2cccc(Cl)c2F)[C@]12C(=O)Nc1cc(Cl)ccc12 [Ib-115]
16,8,CCCCCN1[C@H]2CCn3c(nc4cc(C(=O)O)ccc43)[C@H]2[C@H](c2cccc(Cl)c2F)[C@]12C(=O)Nc1cc(Cl)ccc12 [Ib-117]
17,12,CC(C)CCN1[C@H]2CCn3c(nc4cc(C(=O)O)ccc43)[C@H]2[C@H](c2cccc(Cl)c2F)[C@]12C(=O)Nc1cc(Cl)ccc12 [Ib-119]
18,11,CC(C)=CCN1[C@H]2CCn3c(nc4cc(C(=O)O)ccc43)[C@H]2[C@H](c2cccc(Cl)c2F)[C@]12C(=O)Nc1cc(Cl)ccc12 [Ib-121]
19,4,O=C(O)c1ccc2c(c1)nc1n2CC[C@H]2[C@@H]1[C@H](c1cccc(Cl)c1F)[C@]1(C(=O)Nc3cc(Cl)ccc31)N2CC1CCC1 [Ib-123]
20,14,O=C(O)c1ccc2c(c1)nc1n2CC[C@H]2[C@@H]1[C@H](c1cccc(Cl)c1F)[C@]1(C(=O)Nc3cc(Cl)ccc31)N2CC1CC(F)(F)C1 [Ib-125]
21,11,COCCN1[C@H]2CCn3c(nc4cc(C(=O)O)ccc43)[C@H]2[C@H](c2cccc(Cl)c2F)[C@]12C(=O)Nc1cc(Cl)ccc12 [Ib-127]
22,10,CC(C)OCCN1[C@H]2CCn3c(nc4cc(C(=O)O)ccc43)[C@H]2[C@H](c2cccc(Cl)c2F)[C@]12C(=O)Nc1cc(Cl)ccc12 [Ib-129]
23,22,CC(C)(C)OCCN1[C@H]2CCn3c(nc4cc(C(=O)O)ccc43)[C@H]2[C@H](c2cccc(Cl)c2F)[C@]12C(=O)Nc1cc(Cl)ccc12 [Ib-131]
24,58,CS(=O)(=O)CCCN1[C@H]2CCn3c(nc4cc(C(=O)O)ccc43)[C@H]2[C@H](c2cccc(Cl)c2F)[C@]12C(=O)Nc1cc(Cl)ccc12 [Ib-133]

row,Compound,IC50 [nM]
1,CS(=O)(=O)c1ccc2c(c1)nc1n2CC[C@H]2[C@@H]1[C@H](c1cccc(Cl)c1F)[C@]1(C(=O)Nc3cc(Cl)ccc31)N2CC1CC1 [Ib-57],12
2,CS(=O)(=O)c1ccc2c(c1)nc1n2CC[C@H]2[C@@H]1[C@H](c1cccc(Cl)c1F)[C@]1(C(=O)Nc3cc(Cl)ccc31)N2CC1CC1 [Ib-58],7
